According to patent US20140343049A1, “DIHYDROFURAN DERIVATIVES AS INSECTICIDAL COMPOUNDS” (SYNGENTA PARTICIPATIONS AG, priority 2011, published 2014):

What was measured:
Format in all cases: in vivo
[1] = system: Thrips tabaci (onion thrips); assay: Thrips tabaci sunflower leaf disc spray test; conditions: foliar, 168 h, sunflower leaf discs sprayed at 200 ppm, mixed ages, mortality after 7 days
Method: Sunflower leaf discs were placed on agar in a 24-well microtiter plate and sprayed with test solutions at an application rate of 200 ppm. […] After drying, the leaf discs were infested with a thrip population of mixed ages. After an incubation period of 7 days, samples were checked for mortality.

[2] = system: Tetranychus urticae (two-spotted spider mite); assay: Tetranychus urticae bean leaf disc spray test; conditions: foliar, 192 h, bean leaf discs sprayed at 200 ppm, mixed ages, egg, larval and adult mortality 8 days later
Description: Bean leaf discs on agar in 24-well microtiter plates were sprayed with test solutions at an application rate of 200 ppm. After drying, the leaf discs are infested with mite populations of mixed ages. 8 days later, discs are checked for egg mortality, larval mortality, and adult mortality. […]

[3] = system: Heliothis virescens (tobacco budworm); assay: Heliothis virescens egg test on artificial diet; conditions: 96 h, 200 ppm (concentration in well 18 ppm), eggs 0-24 h old, 4 days, egg mortality, larval mortality, growth regulation
Method: Eggs (0-24 h old) were placed in 24-well microtiter plate on artificial diet and treated with test solutions at an application rate of 200 ppm (concentration in well 18 ppm) by pipetting. After an incubation period of 4 days, samples were checked for egg mortality, larval mortality, and growth regulation.

[4] = system: Spodoptera littoralis (Egyptian cotton leafworm); assay: Spodoptera littoralis cotton leaf disc spray test; conditions: foliar, 72 h, cotton leaf discs sprayed at 200 ppm, 5 L1 larvae, mortality, feeding behavior, growth regulation 3 days after treatment
Description: Cotton leaf discs were placed on agar in a 24-well microtiter plate and sprayed with test solutions at an application rate of 200 ppm. After drying, the leaf discs were infested with 5 L1 larvae. The samples were checked for mortality, feeding behavior, and growth regulation 3 days after treatment (DAT).

[5] = system: Diabrotica balteata (corn root worm); assay: Diabrotica balteata L2 larvae test on artificial diet; conditions: 120 h, 200 ppm (concentration in well 18 ppm), 5 days, larval mortality and growth regulation
Method: A 24-well microtiter plate (MTP) with artificial diet was treated with test solutions at an application rate of 200 ppm (concentration in well 18 ppm) by pipetting. After drying, the MTPs were infested with L2 larvae (6-10 per well). After an incubation period of 5 days, samples were checked for larval mortality and growth regulation.
A 24-well microtiter plate (MTP) with artificial diet was treated with test solutions at an application rate of 12.5 ppm (concentration in well 18 ppm) by pipetting. After drying, the MTP's were infested with L2 larvae (6-10 per well). After an incubation period of 5 days, samples were checked for larval mortality and growth regulation.

[6] = system: Plutella xylostella (diamond back moth); assay: Plutella xylostella L2 larvae test on artificial diet; conditions: 144 h, 200 ppm (concentration in well 18 ppm), 6 days, larval mortality and growth regulation
Method: 24-well microtiter plate (MTP) with artificial diet was treated with test solutions at an application rate of 200 ppm (concentration in well 18 ppm) by pipetting. After drying, the MTPs were infested with L2 larvae (7-12 per well). After an incubation period of 6 days, samples were checked for larval mortality and growth regulation.

Measured: pest or weed control at 200 ppm

Cc1cc(C2=CC(c3cc(Cl)cc(Cl)c3)(C(F)(F)F)OC2)ccc1C(=O)NCCCBr (centres unmarked) [Compound A19]
≥ 80%: [1] | [2] | [3] | [4] | [5] | [6]

Cc1cc(C2=CC(c3cc(Cl)cc(Cl)c3)(C(F)(F)F)OC2)ccc1C(=O)NCCC1OCCO1 (centres unmarked) [Compound A31]
≥ 80%: [1] | [2] | [4] | [5] | [6]

CCC(C)NC(=O)c1ccc(C2=CC(c3cc(Cl)cc(Cl)c3)(C(F)(F)F)OC2)nc1C (centres unmarked) [Compound C7]
≥ 80%: [1] | [3] | [4] | [5] | [6]

C#CC1(NC(=O)c2ccc(C3=CC(c4cc(Cl)cc(Cl)c4)(C(F)(F)F)OC3)cc2C)CCCCC1 (centres unmarked) [Compound A30]
≥ 80%: [1] | [2] | [5] | [6]

Cc1nc(C2=CC(c3cc(Cl)cc(Cl)c3)(C(F)(F)F)OC2)ccc1C(=O)NC1CC2CCC1C2 (centres unmarked) [Compound C20]
≥ 80%: [1] | [3] | [4] | [5] | [6]

Cc1nc(C2=CC(c3cc(Cl)cc(Cl)c3)(C(F)(F)F)OC2)ccc1C(=O)NC1CCC1 (centres unmarked) [Compound C21]
≥ 80%: [1] | [3] | [4] | [5] | [6]

Cc1nc(C2=CC(c3cc(Cl)cc(Cl)c3)(C(F)(F)F)OC2)ccc1C(=O)NC1CSC1 (centres unmarked) [Compound C19]
≥ 80%: [1] | [2] | [4] | [5] | [6]

Cc1cc(C2=CC(c3cc(Cl)cc(Cl)c3)(C(F)(F)F)OC2)ccc1C(=O)NC1CC2CCC1C2 (centres unmarked) [Compound D22]
≥ 80%: [1] | [5] | [6]

COCC(C)NC(=O)c1ccc(C2=CC(c3cc(Cl)cc(Cl)c3)(C(F)(F)F)OC2)nc1C (centres unmarked) [Compound C4]
≥ 80%: [1] | [4]

Cc1csc(NC(=O)c2ccc(C3=CC(c4cc(Cl)cc(Cl)c4)(C(F)(F)F)OC3)cc2C)n1 (centres unmarked) [Compound A11]
≥ 80%: [2] | [3] | [4] | [6]

Cc1cc(C2=CC(c3cc(Cl)cc(Cl)c3)(C(F)(F)F)OC2=O)ccc1C(=O)NC1CCC1 (centres unmarked) [Compound E18]
≥ 80%: [1]

Cc1nc(C2=CC(c3cc(Cl)cc(Cl)c3)(C(F)(F)F)OC2)ccc1C(=O)NCc1ccc(Cl)nc1 (centres unmarked) [Compound C14]
≥ 80%: [2] | [3] | [4] | [5] | [6]

CSCCNC(=O)c1ccc(C2=CC(c3cc(Cl)cc(Cl)c3)(C(F)(F)F)OC2)cc1C (centres unmarked) [Compound A49]
≥ 80%: [2] | [3] | [4] | [5] | [6]

Cc1cc(C2=CC(c3cc(Cl)cc(Cl)c3)(C(F)(F)F)OC2)ccc1C(=O)NCC(F)(F)F (centres unmarked) [Compound A3]
≥ 80%: [2] | [3] | [4] | [5] | [6]

Cc1cc(C2=CC(c3cc(Cl)cc(Cl)c3)(C(F)(F)F)OC2)ccc1C(=O)NCC1CCS1 (centres unmarked) [Compound A80]
≥ 80%: [2] | [3] | [4] | [5] | [6]

Cc1cc(C2=CC(c3cc(Cl)cc(Cl)c3)(C(F)(F)F)OC2)ccc1C(=O)NCC1CCS1(=O)=O (centres unmarked) [Compound A81]
≥ 80%: [2] | [3] | [4] | [5] | [6]

COc1ccc(CNC(=O)c2ccc(C3=CC(c4cc(Cl)cc(Cl)c4)(C(F)(F)F)OC3)cc2C)cc1 (centres unmarked) [Compound A10]
≥ 80%: [2] | [3] | [4] | [6]

Cc1cc(C2=CC(c3cc(Cl)cc(Cl)c3)(C(F)(F)F)OC2)ccc1C(=O)NCc1ccc(Cl)nc1 (centres unmarked) [Compound A52]
≥ 80%: [2] | [3] | [4] | [6]

Cc1cc(C2=CC(c3cc(Cl)cc(Cl)c3)(C(F)(F)F)OC2)ccc1C(=O)Nc1cccc2ncccc12 (centres unmarked) [Compound A57]
≥ 80%: [2] | [3] | [4] | [5] | [6]

Cc1cc(C2=CC(c3cc(Cl)cc(Cl)c3)(C(F)(F)F)OC2)ccc1C(=O)Nc1cccc(F)c1 (centres unmarked) [Compound A59]
≥ 80%: [1] | [3] | [4] | [6]

Cc1cc(C2=CC(c3cc(Cl)cc(Cl)c3)(C(F)(F)F)OC2)ccc1C(=O)NCc1cccnc1 (centres unmarked) [Compound A35]
≥ 80%: [2] | [3] | [4] | [5] | [6]

CCNC(=O)c1ccc(C2=CC(c3cc(Cl)cc(Cl)c3)(C(F)(F)F)OC2)nc1C (centres unmarked) [Compound C2]
≥ 80%: [1] | [2] | [4] | [5] | [6]

Cc1nc(C2=CC(c3cc(Cl)cc(Cl)c3)(C(F)(F)F)OC2)ccc1C(=O)NC1(C)CSC1 (centres unmarked) [Compound C17]
≥ 80%: [1] | [2] | [4] | [5] | [6]

Cc1cc(C2=CC(c3cc(Cl)cc(Cl)c3)(C(F)(F)F)OC2=O)ccc1C(=O)NCC(=O)NCC(F)(F)F (centres unmarked) [Compound E5]
≥ 80%: [2] | [3] | [4] | [5] | [6]
